In patent publication US12539285B2, “Therapeutic agent for hypertrophic cardiomyopathy” (JUNTENDO EDUCATIONAL FOUNDATION, priority 2021, dated 2026):

Legend:
[1] = test system: myocardial cells derived from iPS cells of hypertrophic cardiomyopathy patient (MYH7 R403Q); experiment: Myocardial relaxation rate (SONY SI8000) in HCM patient iPS-derived myocardial cells; format: cell-based; settings: ALA/SFC 10 μM/5 μM, 30 μM/1 μM, 100 μM/50 μM; measured Day 20 and Day 26 vs before administration (Day 15); FIG. 1
Method: (§1) Myocardial cells differentiated from iPS cells derived from hypertrophic cardiomyopathy patient were purchased, seeded, and cultured and were then administered with 5-aminolevulinic acid and sodium ferrous citrate (ALA/SFC). As myocardial cells, […] Cardiomyocytes (MYH7 R403Q) (C1081, cat. #556-34781) (FUJIFILM Cellular Dynamics, Inc.) was used. As a control, myocardial cells derived from iPS cells of normal subject (Cell Cardiomyocytes (Control) (C1056, cat. #551-33491) (FUJIFILM Cellular Dynamics, Inc.) was used. As the culture medium for cell seeding, (iCell Plating medium (M1001, cat. #550-33581) (FUJIFILM Cellular Dynamics, Inc.) was used.
(§2) In the cell culture, as the culture medium, iCell Maintenance medium (M1003, cat. #557-3359I) (FUJIFILM Cellular Dynamics, Inc.) was used.
(§3) • Day 1: Cell seeding (myocardial cells derived from iPS cells of hypertrophic cardiomyopathy patient, myocardial cells derived from iPS cells of normal subject). The cells were seeded at 3×10^4 per well in a 96-well plastic plate (nunc); • Day 15: The relaxation rate before administration was measured using SONY SI8000, and ALA/SFC were then administered on the same day at the following doses. The doses were four groups of 0 μM/0 μM, 10 μM/5 μM, 30 μM/1 μM, and 100 μM/50 μM of ALA/SFC for each of the disease myocardial cells and the normal myocardial cells. […]

[2] = test system: myocardial cells derived from iPS cells of normal subject; experiment: Myocardial relaxation rate (SONY SI8000) in normal myocardial cells; format: cell-based; settings: ALA/SFC 10 μM/5 μM, 30 μM/1 μM, 100 μM/50 μM; measured Day 20 and Day 26 vs before administration (Day 15); FIG. 2
Method: as §1, §2, §3

[3] = test system: zebrafish cardiomyopathy model (myocardial troponin T knockdown (tnnt2a KD)); experiment: Zebrafish cardiomyopathy model (tnnt2a KD), peak filling rate by heart imaging; format: in vivo; settings: ALA/SFC 100 μM/50 μM in culture solution, DAY 0-2, imaging DAY 3; FIG. 5
Description: A synthetic nucleic acid, morpholino antisense oligo (MO), which inhibits translation of zebrafish myocardial troponin T (tnnt2a), was used. The target sequence of tnnt2a-MO used for producing this cardiomyopathy model was 5′-[…]-3′ (SEQ ID NO: 1), and the target sequence of standard control MO (Control-MO) used as a negative control was 5′-[…]-3′ (SEQ ID NO: 2). Both MOs used were produced by Certified GeneTool, Inc. Standard control MO (Lis-MO) having the 3′ terminal labeled with a red fluorescent material, Lissamine, was used as an internal standard substance. An MO powder diluted with nuclease free water to 1 mM was used as a stock solution, and the final concentrations of the tnnt2a-MO and Control-MO were adjusted to 1.2 μM and the final concentration of Lis-MO was adjusted to 50 μM, using nuclease free water as a working solution for microinjection. […]
The acquired moving image was converted into sequence images, and the ventricular outline in each frame was recorded as Region of Interest (ROT). Subsequently, the major and minor axes of an ellipse approximating to the ROI on each sequence image were measured by Fit-to-Ellipse algorithm, the volume of the spheroid of each sequence image was calculated as a ventricular volume, and the peak filling rate (PFR: diastolic function) was measured from the rate of change in the obtained ventricular volume.

[4] = test system: myocardial cells derived from iPS cells of hypertrophic cardiomyopathy (HCM) patient; experiment: Fluorescent calcium imaging, peak width of Ca-imaging waveform; format: cell-based; settings: 10 μM and 30 μM 5-aminolevulinic acid added from 7th day after seeding; FIG. 4
Description: The determinant of the myocardial relaxation rate is the dissociation rate of myosin and actin, and one of factors of determining the dissociation rate is the Ca^2+ uptake function of ATPase present in the longitudinal tubules of sarcoplasmic reticulum. Accordingly, using the above-mentioned myocardial cells derived from iPS cells of hypertrophic cardiomyopathy (HCM) patient, the peak width of a Ca-imaging waveform, which reflects the disappearance rate of Ca^2+ in myocardial cells (i.e., the uptake rate of Ca^2+ into the sarcoplasmic reticulum) by addition of 5-aminolevulinic acid, was measured. […]
As the measurement apparatus for high content analysis, CQ1 Image Cytometer of Yokogawa Electric Corporation was used, and the measurement was performed with excitation light of 488 nm and fluorescence at 500 to 550 nm (spinning-disk confocal unit with microlens array). […]
Over the entire screen of the obtained image data, the fluorescence intensity was digitized over time to obtain fluorescence waveforms. […] The parameters calculated from a waveform were the line width (sec) at each of 10%, 20%, 30%, 50%, 70%, and 90% of the waveform height, the length (sec) of interval between each wave, and the fluorescence intensity (ΔF).

NCC(=O)CCC(=O)O [5-aminolevulinic acid]
relaxation rate of myocardial cells in hypertrophic cardiomyopathy [1]: noticeably increased | relaxation rate in normal myocardial cells [2]: did not increase | left ventricular diastolic function (peak filling rate, PFR) [3]: improved | peak width at 50% of the height of a Ca-imaging waveform (uptake of Ca2+ into sarcoplasmic reticulum) [4]: obviously reduced
